Entries after “also recorded” stand apart in the source; their conditions may differ.
System: HA-HBeAg production from HepBHAe13 cells
Experiment: HA-HBeAg CLIA in HepBHAe13 cells treated with cccDNA formation inhibitors (96-well-plate)
Assay type: cell-based, Hepatitis B virus (HBV)
Settings: tetracycline removed, compounds at indicated concentrations, 0.5% DMSO, day 12 post treatment (FIG. 11)
From the text: According to another aspect of the present invention, the in vitro assay method can be used to evaluate compounds/candidate molecules that suppress cccDNA formation. Briefly, cells can be seeded into culture wells and tetracycline can be omitted at the day when cell monolayer becomes confluent. Simultaneously, test compound can be added and tagged hepadnavirus e antigen (like HA-HBeAg) in the medium can be measured by ELISA at the end of treatment (approximately 6 days). […] As an expanding aspect of this in vitro assay method, it is worth to note that the reduction of tagged hepadnavirus e antigen (like HA-HBeAg) in this assay may also indicate that the compound has the potential to inhibit hepadnavirus (like HBV) DNA replication. Such possibility can be investigated through direct measurement of viral core DNA by Southern blot and/or qPCR. […]
FIG. 11. […] At day 12 post treatment, culture fluid was subjected to HA-HBeAg CLIA and readout was plotted as percentage (mean±SD) to control.
For chemiluminescence enzyme immunoassay (CLIA) detection of HA-tagged HBeAg, high sensitivity streptavidin coated plate (Black, cat#: 15525, Thermo Scientific) was washed by PBST (PBS plus 0.05% Tween 20) for 3 times, and then incubated with 50 μl of anti-HA-biotin (cat#: A00203, Genscript; 5 μg/ml in PBS) at RT for 30 min, followed by wash with 200 μl PBST for 3 times. […] The plate was read on a luminometer.

Compound: Cc1nc2cc(NC(=O)c3ccc(S(=O)(=O)N(C)Cc4ccccc4)cc3)ccc2s1 [CCC-0346]
- HA-HBeAg level in culture fluid (CLIA, percentage to control): dose-dependent inhibition of HA-HBeAg production; also recorded: dose dependently reduced the HA-HBeAg level

Compound: O=C(CN(c1cc(C(F)(F)F)ccc1Cl)S(=O)(=O)c1ccccc1)NCc1ccncc1 [CCC-0975]
- HA-HBeAg level in culture fluid (CLIA, percentage to control): dose-dependent inhibition of HA-HBeAg production; also recorded: dose dependently reduced the HA-HBeAg level
